Measurements reported in patent EP4813989A1, “CRYSTAL, PHARMACEUTICAL COMPOSITION, PREPARATION METHOD THEREFOR, AND USE THEREOF” (TYK Medicines, Inc., priority 2023, dated 2025).

Key:
Format in all cases: physicochemical
[1] = Accelerated test, related substances by HPLC; settings: 40°C±2°C, 75%RH±5%RH; for Impurity content RRT0.55 / Impurity content RRT0.66 / Impurity content RRT0.71 / Impurity content RRT0.94 / Impurity content RRT1.02 / Impurity content RRT1.06 / Impurity content RRT1.08 / Impurity content RRT1.15 / Total impurities: open
Procedure: An investigation method for the accelerated test can be seen in Table 14 below.
Change results of related substances in each crystal form under the accelerated condition (40°C±2°C, 75%RH±5%RH) can be seen in Table 18.
HPLC detection results of related substances under the accelerated condition can be seen as follows: Table 18

[2] = Flowability test (angle of repose)
Procedure: A flowability determination method was as follows: an angle of repose was determined by using a device composed of 2 to 3 funnels connected in series in a staggered manner, and drug powder was slowly and uniformly passed through the funnels onto a stationary base with a diameter d, so as to form a symmetric powder pile with a single layer of powder at the bottom. During the formation of the powder pile, a height of the funnels was maintained within 2-4 cm from a top of the powder pile, a height h of the cone was determined, and the angle of repose was calculated as tanθ=h/(d/2).

[3] = Dynamic vapor sorption (DVS) hygroscopicity
Procedure: Dynamic vapor sorption (DVS) was used to investigate hygroscopicities of an active pharmaceutical ingredient in different crystal forms.
Determination method: • instrument: dynamic vapor sorption analyzer; temperature: 25°C; protective gas and flow rate: N2, 200 mL/min; • dm/dt: 0.002%/min; RH range: 0%RH-100%RH; cycle: 1 full cycle.

[4] = Light exposure test, related substances by HPLC; settings: for Impurity content RRT0.55 / Impurity content RRT0.66 / Impurity content RRT0.71 / Impurity content RRT0.94 / Impurity content RRT1.02 / Impurity content RRT1.06 / Impurity content RRT1.08 / Impurity content RRT1.15 / Total impurities: 4500lx±500lx, open
Source text: An investigation method for the light exposure test can be seen in Table 13 below.
Results of related substances in each crystal form under the light exposure condition (4500lx±500lx) can be seen in Table 17.
HPLC detection results of related substances under the light exposure condition can be seen as follows: Table 17

[5] = High-humidity test, related substances by HPLC; settings: 90%RH±5%RH; for Impurity content RRT0.55 / Impurity content RRT0.66 / Impurity content RRT0.71 / Impurity content RRT0.94 / Impurity content RRT1.02 / Impurity content RRT1.06 / Impurity content RRT1.08 / Impurity content RRT1.15 / Total impurities: open
Source text: An investigation method for the high-humidity test can be seen in Table 12 below.
Results of related substances in each crystal form under the high-humidity condition (90%RH±5%RH) can be seen in Table 16.
HPLC detection results of related substances under the high-humidity condition can be seen as follows: Table 16

C[C@@H](Nc1ccn2ncc(C3=NOC(C)(C)N3)c2n1)c1cc(F)cc(F)c1F [crystal form A]
Increase of impurity RRT1.08 content ([1]; 32 days): 0.04% | Impurity content RRT0.55 ([1]; 0 day): 0.03% | Impurity content RRT0.66 ([1]; 0 day): 0.18% | Impurity content RRT0.71 ([1]; 0 day): 0.15% | Impurity content RRT0.94 ([1]; 0 day): 0.04% | Impurity content RRT1.02 ([1]; 0 day): 0.28% | Impurity content RRT1.06 ([1]; 0 day): 0.07% | Impurity content RRT1.08 ([1]; 0 day): 0.16% | Impurity content RRT1.15 ([1]; 0 day): 0.03% | Total impurities ([1]; 0 day): 0.95% | Impurity content RRT0.55 ([1]; 5 days): 0.03% | Impurity content RRT0.66 ([1]; 5 days): 0.20% | Impurity content RRT0.71 ([1]; 5 days): 0.16% | Impurity content RRT0.94 ([1]; 5 days): 0.04% | Impurity content RRT1.02 ([1]; 5 days): 0.30% | Impurity content RRT1.06 ([1]; 5 days): 0.08% | Impurity content RRT1.08 ([1]; 5 days): 0.18% | Impurity content RRT1.15 ([1]; 5 days): 0.03% | Total impurities ([1]; 5 days): 1.02% | Impurity content RRT0.55 ([1]; 11 days): 0.04% | Impurity content RRT0.66 ([1]; 11 days): 0.20% | Impurity content RRT0.71 ([1]; 11 days): 0.17% | Impurity content RRT0.94 ([1]; 11 days): 0.03% | Impurity content RRT1.02 ([1]; 11 days): 0.33% | Impurity content RRT1.06 ([1]; 11 days): 0.09% | Impurity content RRT1.08 ([1]; 11 days): 0.25% | Impurity content RRT1.15 ([1]; 11 days): 0.04% | Total impurities ([1]; 11 days): 1.14% | Impurity content RRT0.55 ([1]; 32 days): 0.04% | Impurity content RRT0.66 ([1]; 32 days): 0.20% | Impurity content RRT0.71 ([1]; 32 days): 0.16% | Impurity content RRT0.94 ([1]; 32 days): 0.04% | Impurity content RRT1.02 ([1]; 32 days): 0.27% | Impurity content RRT1.06 ([1]; 32 days): 0.07% | Impurity content RRT1.08 ([1]; 32 days): 0.20% | Impurity content RRT1.15 ([1]; 32 days): 0.06% | Total impurities ([1]; 32 days): 1.03% | angle of repose [2]: approximately 32.7 ° | Hygroscopicity (conclusion) [3]: did not have hygroscopicity under conventional conditions | DVS weight loss ([3]; at 0% humidity, 25°C): 3-4% | DVS hygroscopicity ([3]; humidity 90% or more): obvious hygroscopicity | DVS weight gain ([3]; humidity increased from 0% to 20%): significant weight gain | DVS hygroscopic weight gain ([3]; humidity increased from 20% to 80%): almost no hygroscopic weight gain | Increase of impurity RRT0.66 content ([4]; 4500 lx±500 lx, 32 days): 0.09% | Increase of impurity RRT0.71 content ([4]; 4500 lx±500 lx, 32 days): not increased | Increase of impurity RRT1.02 content ([4]; 4500 lx±500 lx, 32 days): not increased | Increase of impurity RRT1.08 content ([4]; 4500 lx±500 lx, 32 days): 0.09% | Increase of total impurities ([4]; 4500 lx±500 lx, 32 days): 0.13% | Impurity content RRT0.55 ([4]; 0 day): 0.03% | Impurity content RRT0.66 ([4]; 0 day): 0.18% | Impurity content RRT0.71 ([4]; 0 day): 0.15% | Impurity content RRT0.94 ([4]; 0 day): 0.04% | Impurity content RRT1.02 ([4]; 0 day): 0.28% | Impurity content RRT1.06 ([4]; 0 day): 0.07% | Impurity content RRT1.08 ([4]; 0 day): 0.16% | Impurity content RRT1.15 ([4]; 0 day): 0.03% | Total impurities ([4]; 0 day): 0.95% | Impurity content RRT0.55 ([4]; 5 days): 0.03% | Impurity content RRT0.66 ([4]; 5 days): 0.21% | Impurity content RRT0.71 ([4]; 5 days): 0.14% | Impurity content RRT0.94 ([4]; 5 days): 0.04% | Impurity content RRT1.02 ([4]; 5 days): 0.30% | Impurity content RRT1.06 ([4]; 5 days): 0.08% | Impurity content RRT1.08 ([4]; 5 days): 0.20% | Impurity content RRT1.15 ([4]; 5 days): 0.04% | Total impurities ([4]; 5 days): 1.03% | Impurity content RRT0.55 ([4]; 11 days): 0.03% | Impurity content RRT0.66 ([4]; 11 days): 0.22% | Impurity content RRT0.71 ([4]; 11 days): 0.15% | Impurity content RRT0.94 ([4]; 11 days): 0.03% | Impurity content RRT1.02 ([4]; 11 days): 0.31% | Impurity content RRT1.06 ([4]; 11 days): 0.07% | Impurity content RRT1.08 ([4]; 11 days): 0.22% | Impurity content RRT1.15 ([4]; 11 days): 0.04% | Total impurities ([4]; 11 days): 1.08% | Impurity content RRT0.55 ([4]; 32 days): 0.03% | Impurity content RRT0.66 ([4]; 32 days): 0.27% | Impurity content RRT0.71 ([4]; 32 days): 0.10% | Impurity content RRT0.94 ([4]; 32 days): 0.07% | Impurity content RRT1.02 ([4]; 32 days): 0.28% | Impurity content RRT1.06 ([4]; 32 days): 0.06% | Impurity content RRT1.08 ([4]; 32 days): 0.25% | Impurity content RRT1.15 ([4]; 32 days): 0.02% | Total impurities ([4]; 32 days): 1.08% | Increase of impurity RRT1.02 content ([5]; 32 days): no essential changes | Increase of impurity RRT1.08 content ([5]; 32 days): no essential change | Increase of total impurities ([5]; 32 days): 0.03% | Impurity content RRT0.55 ([5]; 0 day): 0.03% | Impurity content RRT0.66 ([5]; 0 day): 0.18% | Impurity content RRT0.71 ([5]; 0 day): 0.15% | Impurity content RRT0.94 ([5]; 0 day): 0.04% | Impurity content RRT1.02 ([5]; 0 day): 0.28% | Impurity content RRT1.06 ([5]; 0 day): 0.07% | Impurity content RRT1.08 ([5]; 0 day): 0.16% | Impurity content RRT1.15 ([5]; 0 day): 0.03% | Total impurities ([5]; 0 day): 0.95% | Impurity content RRT0.55 ([5]; 5 days): 0.03% | Impurity content RRT0.66 ([5]; 5 days): 0.20% | Impurity content RRT0.71 ([5]; 5 days): 0.16% | Impurity content RRT0.94 ([5]; 5 days): 0.03% | Impurity content RRT1.02 ([5]; 5 days): 0.31% | Impurity content RRT1.06 ([5]; 5 days): 0.09% | Impurity content RRT1.08 ([5]; 5 days): 0.21% | Impurity content RRT1.15 ([5]; 5 days): 0.04% | Total impurities ([5]; 5 days): 1.07% | Impurity content RRT0.55 ([5]; 11 days): 0.03% | Impurity content RRT0.66 ([5]; 11 days): 0.20% | Impurity content RRT0.71 ([5]; 11 days): 0.16% | Impurity content RRT0.94 ([5]; 11 days): 0.03% | Impurity content RRT1.02 ([5]; 11 days): 0.30% | Impurity content RRT1.06 ([5]; 11 days): 0.08% | Impurity content RRT1.08 ([5]; 11 days): 0.21% | Impurity content RRT1.15 ([5]; 11 days): 0.03% | Total impurities ([5]; 11 days): 1.05% | Impurity content RRT0.55 ([5]; 32 days): 0.03% | Impurity content RRT0.66 ([5]; 32 days): 0.18% | Impurity content RRT0.71 ([5]; 32 days): 0.16% | Impurity content RRT0.94 ([5]; 32 days): 0.05% | Impurity content RRT1.02 ([5]; 32 days): 0.26% | Impurity content RRT1.06 ([5]; 32 days): 0.06% | Impurity content RRT1.08 ([5]; 32 days): 0.18% | Impurity content RRT1.15 ([5]; 32 days): 0.05% | Total impurities ([5]; 32 days): 0.98%
